Test results reported in ChEMBL document CHEMBL4706713, “Speeding drug discovery targeting RNAs: An iterative "RNA selection-compounds screening cycle" for exploring RNA-small molecule pairs” (Bioorg Med Chem, 2021).
pKd: −log10 of the molar value. One block for each molecule: values may come before it. Calls of active or inactive are those of the source. The calls are words filed in the database; no cut-off is given here.

Key:
[1] = Binding affinity to 5'-Biotinylated pre-let-7f-2-loop-mt RNA (unknown origin) by SPR analysis
[2] = Binding affinity to R1-RNA (unknown origin) by SPR analysis
[3] = Binding affinity to R2-RNA (unknown origin) by SPR analysis
[4] = Binding affinity to R1-RNA internal loop (unknown origin) by SPR analysis
[5] = Binding affinity to R1-RNA hairpin loop (unknown origin) by SPR analysis
[6] = Binding affinity to R1-RNA internal loop mutant1 (unknown origin) by SPR analysis
[7] = Binding affinity to R1-RNA internal loop mutant2 (unknown origin) by SPR analysis
[8] = Binding affinity to R1-RNA internal loop mutant3 (unknown origin) by SPR analysis
[9] = Binding affinity to R1-RNA internal loop mutant4 (unknown origin) by SPR analysis
[10] = Binding affinity to 5'-Biotinylated pre-let-7f-2 RNA (unknown origin) by SPR analysis
[11] = Binding affinity to 5'-Biotinylated pre-let-7f-2-loop-mt RNA (unknown origin) at 25 uM by SPR analysis

Activity [1]: inactive
Compound: CC(C)NC(=O)c1ccncc1NC(=O)Nc1nn(C)c2nc(N3CCCC3)ncc12

Activity [2]: Active
Activity [3]: inactive
Activity [4]: Active
Activity [5]: inactive
Activity [6]: inactive
Activity [7]: inactive
Activity [8]: inactive
Activity [9]: inactive
Activity [10]: inactive
Activity [1]: Active
Activity [11]: Active
Compound: Cn1nc(NC(=O)Nc2cnccc2C(=O)N[C@@H](CO)CCCCN)c2cnc(N3CC(F)(F)C(F)(F)C3)nc21

Activity [11]: Active
Compound: CC(C)NC(=O)c1ccncc1NC(=O)Nc1nn(C)c2nc(N3CCC(N(C)C)C3)ncc12 (configuration not stated)

pKd [1]: 4.75
Activity [11]: Active
Compound: CC(C)NC(=O)c1ccncc1NC(=O)Nc1nn(C)c2nc(Cl)ncc12

Activity [11]: Active
Compound: CC(C)NC(=O)c1ccncc1NC(=O)Nc1nn(C)c2nc(N3CCC(CN(C)C)C3)ncc12 (configuration not stated)

Activity [1]: inactive
Compound: COCC1CCN(c2ncc3c(NC(=O)Nc4cnccc4C(=O)NC(C)C)nn(C)c3n2)C1 (configuration not stated)
